{"source": "patent US20250025523A1", "about": "“COMPOSITION FOR PREVENTING OR TREATING MUSCLE DISEASE COMPRISING SARGASSUM SERRATIFOLIUM EXTRACT” (PUKYONG NATIONAL UNIVERSITY INDUSTRY- UNIVERSITY …, priority 2021, published 2025)", "test": "Body weight change in dexamethasone muscle atrophy mouse model", "format": "in vivo, C57BL/6 mice", "details": "DEX group: dexamethasone 10 mg/kg/day i.p. 4 weeks, olive oil orally; at sacrifice", "method": "Specifically, three-week-old male C57BL/6 mice were provided with free access to water and food and were acclimated under conditions of 23±2° C., relative humidity of 50±5%, and a 12-hour light/dark cycle. […] In the untreated group, an equivalent volume of saline was administered intraperitoneally. Body weight and food intake were evaluated daily. The experiment was conducted with the approval of the Pukyong National University Animal Care and Use Committee, in accordance with Pukyong National University's animal experiment ethics regulations.", "data": [{"smiles": "C[C@@H]1C[C@H]2[C@@H]3CCC4=CC(=O)C=C[C@]4(C)[C@@]3(F)[C@@H](O)C[C@]2(C)[C@@]1(O)C(=O)CO", "note": "[DEX, dexamethasone]", "values": [{"measurement": "Body weight (g) Sacrifice [B]", "value": "27.9 ± 3.25", "unit": "g"}]}]}
